Test results reported in US10626093B2, “Polymorphic form of crystalline rosuvastatin calcium and novel processes for crystalline as well as amorphous rosuvastatin calcium” (MOREPEN LABORATORIES LIMITED, priority 2016, dated 2020).

Assays:
[1] = Stability study of Rosuvastatin calcium form M2 (plant batches, RT); format: physicochemical
Method: According to still another embodiment of current invention, The form M2 is stable at 30° C. with 65% RH for 24 months & 40° C. with 75% RH for 6 months for all ICH/EP/USP grade.

[2] = Stability study of Rosuvastatin calcium form M (30° C./65% RH and 40° C./75% RH); format: physicochemical
Method: According to one more aspect of current invention, the form M is stable at 30° C. with 65% RH for 48 months & 40° C. with 75% RH for 6 months for all ICH/EP/USP grade.

[3] = 40° C. with 75% RH for 6 months

Q: Which Stability ([1]; 30° C. with 65% RH for 24 months) does the source give for “7-[4-(4-flurophenyl)-6-isopropyl-2-(N-methyl-N-methyl sulfonyl amino)-pyrimidin-5-yl]-(3R,5S)-dihydroxy-hept-6-enoic acid Calcium salt [form M2]” here?
A: stable

Q: And the Stability [1, 3]?
A: stable

Q: What does the source list for “7-[4-(4-flurophenyl)-6-isopropyl-2-(N-methyl-N-methylsulfonylamino)-pyrimidin-5-yl]-(3R,5S)-dihydroxy-hept-6-enoic acid Calcium salt [form M]”?
A: Stability ([2]; 30° C. with 65% RH for 48 months): stable; Assay (OAB) ([2]; 30° C./65% RH, 3 months): 99.58 % w/w; Description ([2]; 30° C./65% RH, 3 months): A white; Related Substances (HPLC) Individual Unknown Imp. ([2]; 30° C./65% RH, 3 months): 0.02%; Related Substances (HPLC) Lactone ([2]; 30° C./65% RH, 3 months): 0.05%; Related Substances (HPLC) RT-07 ([2]; 30° C./65% RH, 3 months): 0.05%; Related Substances (HPLC) Total Imp. ([2]; 30° C./65% RH, 3 months): 0.16%; Water ([2]; 30° C./65% RH, 3 months): 5.30%; Assay (OAB) ([2]; 30° C./65% RH, 6 months): 99.54 % w/w; Description ([2]; 30° C./65% RH, 6 months): A white; Related Substances (HPLC) Individual Unknown Imp. ([2]; 30° C./65% RH, 6 months): 0.04%; Related Substances (HPLC) Lactone ([2]; 30° C./65% RH, 6 months): 0.04%; Related Substances (HPLC) RT-07 ([2]; 30° C./65% RH, 6 months): 0.05%; Related Substances (HPLC) Total Imp. ([2]; 30° C./65% RH, 6 months): 0.14%; Water ([2]; 30° C./65% RH, 6 months): 5.43%; Assay (OAB) ([2]; 30° C./65% RH, 9 months): 99.33 % w/w; Description ([2]; 30° C./65% RH, 9 months): A white; Related Substances (HPLC) Individual Unknown Imp. ([2]; 30° C./65% RH, 9 months): 0.02%; Related Substances (HPLC) Lactone ([2]; 30° C./65% RH, 9 months): 0.04%; Related Substances (HPLC) RT-07 ([2]; 30° C./65% RH, 9 months): 0.05%; Related Substances (HPLC) Total Imp. ([2]; 30° C./65% RH, 9 months): 0.14%; Water ([2]; 30° C./65% RH, 9 months): 5.44%; Assay (OAB) ([2]; 30° C./65% RH, 12 months): 99.55 % w/w; Description ([2]; 30° C./65% RH, 12 months): A white; Related Substances (HPLC) Anti-Isomer ([2]; 30° C./65% RH, 12 months): 0.04%; Related Substances (HPLC) Individual Unknown Imp. ([2]; 30° C./65% RH, 12 months): 0.02%; Related Substances (HPLC) Lactone ([2]; 30° C./65% RH, 12 months): 0.05%; Related Substances (HPLC) RT-07 ([2]; 30° C./65% RH, 12 months): 0.06%; Related Substances (HPLC) Total Imp. ([2]; 30° C./65% RH, 12 months): 0.17%; Water ([2]; 30° C./65% RH, 12 months): 5.55%; Assay (OAB) ([2]; 30° C./65% RH, 18 months): 99.70 % w/w; Description ([2]; 30° C./65% RH, 18 months): A white; Related Substances (HPLC) Anti-Isomer ([2]; 30° C./65% RH, 18 months): 0.03%; Related Substances (HPLC) Individual Unknown Imp. ([2]; 30° C./65% RH, 18 months): 0.02%; Related Substances (HPLC) Lactone ([2]; 30° C./65% RH, 18 months): 0.04%; Related Substances (HPLC) RT-07 ([2]; 30° C./65% RH, 18 months): 0.05%; Related Substances (HPLC) Total Imp. ([2]; 30° C./65% RH, 18 months): 0.16%; Water ([2]; 30° C./65% RH, 18 months): 5.57%; Assay (OAB) ([2]; 30° C./65% RH, 24 months): 99.81 % w/w; Description ([2]; 30° C./65% RH, 24 months): A white; Related Substances (HPLC) Anti-Isomer ([2]; 30° C./65% RH, 24 months): 0.04%; Related Substances (HPLC) Individual Unknown Imp. ([2]; 30° C./65% RH, 24 months): 0.02%; Related Substances (HPLC) Lactone ([2]; 30° C./65% RH, 24 months): 0.04%; Related Substances (HPLC) RT-07 ([2]; 30° C./65% RH, 24 months): 0.05%; Related Substances (HPLC) Total Imp. ([2]; 30° C./65% RH, 24 months): 0.15%; Water ([2]; 30° C./65% RH, 24 months): 5.72%; Assay (OAB) ([2]; 30° C./65% RH, 36 months): 99.75 % w/w; Description ([2]; 30° C./65% RH, 36 months): A white; Related Substances (HPLC) Anti-Isomer ([2]; 30° C./65% RH, 36 months): 0.04%; Related Substances (HPLC) Individual Unknown Imp. ([2]; 30° C./65% RH, 36 months): 0.02%; Related Substances (HPLC) Lactone ([2]; 30° C./65% RH, 36 months): 0.04%; Related Substances (HPLC) RT-07 ([2]; 30° C./65% RH, 36 months): 0.05%; Related Substances (HPLC) Total Imp. ([2]; 30° C./65% RH, 36 months): 0.16%; Water ([2]; 30° C./65% RH, 36 months): 5.74%; Assay (OAB) ([2]; 30° C./65% RH, 48 months): 99.66 % w/w; Description ([2]; 30° C./65% RH, 48 months): A white; Related Substances (HPLC) Anti-Isomer ([2]; 30° C./65% RH, 48 months): 0.05%; Related Substances (HPLC) Individual Unknown Imp. ([2]; 30° C./65% RH, 48 months): 0.02%; Related Substances (HPLC) Lactone ([2]; 30° C./65% RH, 48 months): 0.04%; Related Substances (HPLC) RT-07 ([2]; 30° C./65% RH, 48 months): 0.05%; Related Substances (HPLC) Total Imp. ([2]; 30° C./65% RH, 48 months): 0.16%; Water ([2]; 30° C./65% RH, 48 months): 5.90%; Stability [2, 3]: stable; Assay (OAB) ([2]; 40° C./75% RH, 1 month): 100.03 % w/w; Description ([2]; 40° C./75% RH, 1 month): A white; Related Substances (HPLC) Individual Unknown Imp. ([2]; 40° C./75% RH, 1 month): 0.03%; Related Substances (HPLC) Lactone ([2]; 40° C./75% RH, 1 month): 0.04%; Related Substances (HPLC) RT-07 ([2]; 40° C./75% RH, 1 month): 0.05%; Related Substances (HPLC) Total Imp. ([2]; 40° C./75% RH, 1 month): 0.14%; Water ([2]; 40° C./75% RH, 1 month): 5.65%; Assay (OAB) ([2]; 40° C./75% RH, 2 months): 99.93 % w/w; Description ([2]; 40° C./75% RH, 2 months): A white; Related Substances (HPLC) Individual Unknown Imp. ([2]; 40° C./75% RH, 2 months): 0.02%; Related Substances (HPLC) Lactone ([2]; 40° C./75% RH, 2 months): 0.04%; Related Substances (HPLC) RT-07 ([2]; 40° C./75% RH, 2 months): 0.05%; Related Substances (HPLC) Total Imp. ([2]; 40° C./75% RH, 2 months): 0.15%; Water ([2]; 40° C./75% RH, 2 months): 5.59%; Assay (OAB) ([2]; 40° C./75% RH, 3 months): 100.03 % w/w; Description ([2]; 40° C./75% RH, 3 months): A white; Related Substances (HPLC) Individual Unknown Imp. ([2]; 40° C./75% RH, 3 months): 0.02%; Related Substances (HPLC) Lactone ([2]; 40° C./75% RH, 3 months): 0.04%; Related Substances (HPLC) RT-07 ([2]; 40° C./75% RH, 3 months): 0.05%; Related Substances (HPLC) Total Imp. ([2]; 40° C./75% RH, 3 months): 0.13%; Water ([2]; 40° C./75% RH, 3 months): 5.66%; Assay (OAB) ([2]; 40° C./75% RH, 6 months): 99.59 % w/w; Description ([2]; 40° C./75% RH, 6 months): A white; Related Substances (HPLC) Individual Unknown Imp. ([2]; 40° C./75% RH, 6 months): 0.02%; Related Substances (HPLC) Lactone ([2]; 40° C./75% RH, 6 months): 0.04%; Related Substances (HPLC) RT-07 ([2]; 40° C./75% RH, 6 months): 0.04%; Related Substances (HPLC) Total Imp. ([2]; 40° C./75% RH, 6 months): 0.12%; Water ([2]; 40° C./75% RH, 6 months): 5.63%; Assay (OAB) ([2]; Initial): 100.08 % w/w; Description ([2]; Initial): A white; Related Substances (HPLC) Individual Unknown Imp. ([2]; Initial): 0.02%; Related Substances (HPLC) Lactone ([2]; Initial): 0.02%; Related Substances (HPLC) RT-07 ([2]; Initial): 0.05%; Related Substances (HPLC) Total Imp. ([2]; Initial): 0.13%; Water ([2]; Initial): 5.06%
